# System: HT-1080 (ATCC, CCL-121) cells
# Assay: HT-1080 cell viability assay with ferroptosis inducer RSL3 (Cell Titer-Glo)
# Type: cell-based
# Conditions: Homo sapiens; HT-1080 cells treated with RSL3; 3-fold, 10-point dilution, 1.1 μM highest concentration; Table 2; read-out: EC50 (nM), ferroptosis inhibitory activity
# In short: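 HT-1080 cells (6000 per well) were cultured overnight at 37 °C, then co-treated with RSL3 and compound in a 3-fold, 10-point series topping at 1.1 μM. Viability was read by CellTiter-Glo luminescence and normalized to untreated controls. EC50 came from a sigmoidal non-linear regression fit.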
row,EC50,Structure (SMILES)
1,0.1 to 100 nM,"CC1CN(c2ccc(Nc3ccc4c(c3)CN(C)C4)cc2)CC(C)O1 (stereo not drawn) [Compound 430, N-(4-(2,6-dimethylmorpholino)phenyl)-2-methylisoindolin-5-amine]"
2,0.1 to 100 nM,"CN1C(=O)COc2cc(Nc3ccc(N4CC5(CCC5)C4)cc3)ccc21 [Compound 21, 7-((4-(2-azaspiro[3.3]heptan-2-yl)phenyl)amino)-4-methyl-2H-benzo[b][1,4]oxazin-3(4H)-one]"
3,0.1 to 100 nM,"Cn1c(=O)n(CCN2CCCC2=O)c2ccc(Nc3ccc(N4CCC(C(F)(F)F)CC4)cc3)cc21 [Compound 367, 3-methyl-1-(2-(2-oxopyrrolidin-1-yl)ethyl)-5-((4-(4-(trifluoromethyl)piperidin-1-yl)phenyl)amino)-1,3-dihydro-2H-benzo[d]imidazol-2-one]"
4,0.1 to 100 nM,"CN1Cc2cc(Nc3cnc(N4CCCCC4)c(F)c3)ccc2C1=O [Compound 183, 5-((5-fluoro-6-(piperidin-1-yl)pyridin-3-yl)amino)-2-methylisoindolin-1-one]"
5,0.1 to 100 nM,"O=C1c2ccc(Nc3ccc(N4CCC(C(F)(F)F)CC4)cc3)cc2CN1Cc1ccccc1 [Compound 199, 2-benzyl-5-((4-(4-(trifluoromethyl)piperidin-1-yl)phenyl)amino) isoindolin-1-one]"
6,0.1 to 100 nM,"CCn1c2cc(Nc3ccc(N4CCC(C(F)(F)F)CC4)cc3)ccc2c(=O)n1C [Compound 218, 1-ethyl-2-methyl-6-((4-(4-(trifluoromethyl)piperidin-1-yl)phenyl)amino)-1,2-dihydro-3H-indazol-3-one]"
7,0.1 to 100 nM,"CCN1Cc2ccc(Nc3ccc(N4CCC(F)(F)CC4)cc3)cc2C1 [Compound 167, N-(4-(4,4-difluoropiperidin-1-yl)phenyl)-2-ethylisoindolin-5-amine]"
8,0.1 to 100 nM,"CNCCN1C(=O)COc2cc(Nc3ccc(N4CC(C)OC(C)C4)cc3C)ccc21 (stereo not drawn) [Compound 55, 7-((4-(2,6-dimethylmorpholino)-2-methylphenyl)amino)-4-(2-(methylamino)ethyl)-2H-benzo[b][1,4]oxazin-3(4H)-one]"
9,0.1 to 100 nM,"Cn1c(=O)oc2ccc(Nc3cnc(N4CCC(C(F)(F)F)CC4)c(F)c3)cc21 [Compound 388, 5-((5-fluoro-6-(4-(trifluoromethyl)piperidin-1-yl)pyridin-3-yl)amino)-3-methylbenzo[d]oxazol-2(3H)-one]"
10,0.1 to 100 nM,"CN1CCOc2cc(Nc3ccc(N4CCC(C(F)(F)F)CC4)cc3)ccc21 [Compound 114, 4-methyl-N-(4-(4-(trifluoromethyl)piperidin-1-yl)phenyl)-3,4-dihydro-2H-benzo[b][1,4]oxazin-7-amine]"
11,0.1 to 100 nM,CNCCCn1c(=O)oc2ccc(Nc3ccc(N4CC(C)OC(C)C4)cc3)cc21 (stereo not drawn) [Compound 416]
12,0.1 to 100 nM,"CN1CCN(CC(=O)N2CCc3cc(Nc4ccc(N5CCC(C(F)(F)F)CC5)c(F)c4)ccc3C2)CC1 [Compound 108, 1-(6-((3-fluoro-4-(4-(trifluoromethyl)piperidin-1-yl)phenyl)amino)-3,4-dihydroisoquinolin-2(1H)-yl)-2-(4-methylpiperazin-1-yl)ethan-1-one]"
13,0.1 to 100 nM,"O=C1c2ccc(Nc3ccc(N4CCC(C(F)(F)F)CC4)cc3)cc2CN1C1CCOCC1 [Compound 258, 2-(tetrahydro-2H-pyran-4-yl)-5-((4-(4-(trifluoromethyl)piperidin-1-yl)phenyl)amino)isoindolin-1-one]"
14,0.1 to 100 nM,"NCCc1cc2ccc(Nc3ccc(N4CCC(C(F)(F)F)CC4)cc3)cc2oc1=O [Compound 125, 3-(2-aminoethyl)-7-((4-(4-(trifluoromethyl)piperidin-1-yl)phenyl)amino)-2H-chromen-2-one]"
15,0.1 to 100 nM,"CC1CN(c2ccc(Nc3ccc4nn(C)cc4c3)cc2)CC(C)O1 (stereo not drawn) [Compound 423, N-(4-(2,6-dimethylmorpholino)phenyl)-2-methyl-2H-indazol-5-amine]"
16,0.1 to 100 nM,"Cn1c(=O)c2ccc(Nc3ccc(N4CCC(C(F)(F)F)CC4)cc3)cc2n1C [Compound 224, 1,2-dimethyl-6-((4-(4-(trifluoromethyl)piperidin-1-yl)phenyl)amino)-1,2-dihydro-3H-indazol-3-one]"
17,0.1 to 100 nM,"Cn1c(=O)n(C)c2cc(Nc3ccc(C(C)(C)C)cc3)ccc21 [Compound 261, 5-((4-(tert-butyl)phenyl)amino)-1,3-dimethyl-1,3-dihydro-2H-benzo[d]imidazol-2-one]"
18,0.1 to 100 nM,"Cn1c(=O)oc2cc(Nc3ccc(C4CCC(C)(C)CC4)cc3)ccc21 [Compound 406, 6-((4-(4,4-dimethylcyclohexyl)phenyl)amino)-3-methylbenzo[d]oxazol-2(3H)-one]"
19,0.1 to 100 nM,CCn1c(=O)cnc2cc(Nc3ccc(N4CCC(C)CC4)cc3)ccc21 [Compound 117]
20,0.1 to 100 nM,"FC1(F)CCN(c2ccc(Nc3ccc4c(c3)CNC4)cc2)CC1 [Compound 165, N-(4-(4,4-difluoropiperidin-1-yl)phenyl)isoindolin-5-amine]"
21,0.1 to 100 nM,"Cc1cc(=O)oc2cc(Nc3ccc(C(C)(C)C)cc3)ccc12 [Compound 118, 7-((4-(tert-butyl)phenyl)amino)-4-methyl-2H-chromen-2-one]"
22,0.1 to 100 nM,"CN1Cc2cc(Nc3ccc(N4CC(C)(C)C4)cc3)ccc2C1=O [Compound 223, 5-((4-(3,3-dimethylazetidin-1-yl)phenyl)amino)-2-methylisoindolin-1-one]"
23,0.1 to 100 nM,"CC1CCN(c2ccc(Nc3ccc4c(=O)n(C)[nH]c4c3)cc2)CC1 [Compound 251, 2-methyl-6-((4-(4-methylpiperidin-1-yl)phenyl)amino)-1,2-dihydro-3H-ind azol-3-one]"

# Same assay, conditions: Homo sapiens; HT-1080 cells treated with RSL3; 3-fold, 10-point dilution, 1.1 μM highest concentration; Table 3; read-out: EC50 (nM), ferroptosis inhibitory activity
row,EC50,Structure (SMILES)
1,0.1 to 100 nM,"C[C@H]1CN(c2ccc(Nc3ccc4c(c3)OCC(=O)N4)cc2)CCN1CC(F)(F)F [Compound 581, (S)-7-((4-(3-methyl-4-(2,2,2-trifluoroethyl)piperazin-1-yl)phenyl)amino)-2H-benzo[b][1,4]oxazin-3(4H)-one]"
2,0.1 to 100 nM,"Cc1cc(N2CCC(F)(F)CC2)ccc1Nc1ccc2c(c1)OCCC(=O)N2 [Compound 629, 8-((4-(4,4-difluoropiperidin-1-yl)-2-methylphenyl)amino)-2,3-dihydrobenzo[b][1,4]oxazepin-4(5H)-one]"
3,0.1 to 100 nM,"Cc1cc(N2CCCC2)ccc1Nc1ccc2c(c1)OCC(=O)N2 [Compound 563, 7-((2-methyl-4-(pyrrolidin-1-yl)phenyl)amino)-2H-benzo[b][1,4]oxazin-3(4H)-one]"
4,0.1 to 100 nM,"O=C1COc2cc(Nc3cnc(N4CCC(C(F)(F)F)CC4)nc3)ccc2N1 [Compound 475, 7-((2-(4-(trifluoromethyl)piperidin-1-yl)pyrimidin-5-yl)amino)-2H-benzo[b][1,4]oxazin-3(4H)-one]"
5,0.1 to 100 nM,"Cc1cc(N2CC(OC(F)(F)F)C2)ccc1Nc1ccc2c(c1)OCC(=O)N2 [Compound 621, 7-((2-methyl-4-(3-(trifluoromethoxy)azetidin-1-yl)phenyl)amino)-2H-benzo[b][1,4]oxazin-3(4H)-one]"
6,0.1 to 100 nM,"Cc1cc(N2CC(OC(F)F)C2)ccc1Nc1ccc2c(c1)OCC(=O)N2 [Compound 652, 7-[4-[3-(difluoromethoxy)azetidin-1-yl]-2-methyl-anilino]-4H-1,4-benzoxazin-3-one]"
7,0.1 to 100 nM,"Cc1cc(N2CCC(C)CC2)ccc1Nc1ccc2c(c1)OCC(=O)N2C [Compound 490, 4-methyl-7-((2-methyl-4-(4-methylpiperidin-1-yl)phenyl)amino)-2H-benzo[b][1,4]oxazin-3(4H)-one]"
8,0.1 to 100 nM,"Cc1cc(N2CCC(C(F)(F)F)CC2)ccc1Nc1ccc2[nH]ncc2c1 [Compound 497, N-(2-methyl-4-(4-(trifluoromethyl)piperidin-1-yl)phenyl)-1H-indazol-5-amine]"
9,0.1 to 100 nM,"COc1cc(Nc2ccc(N3CCC(C(F)(F)F)CC3)cc2C)cc2c1NC(=O)CO2 [Compound 564, 5-methoxy-7-((2-methyl-4-(4-(trifluoromethyl)piperidin-1-yl)phenyl)amino)-2H-benzo[b][1,4]oxazin-3(4H)-one]"
10,0.1 to 100 nM,"Cc1cc(N2CCC(C(F)(F)F)CC2)ccc1Nc1ccc2c(c1)CN(CC(N)=O)C2 [Compound 579, 2-(5-((2-methyl-4-(4-(trifluoromethyl)piperidin-1-yl)phenyl)amino)isoindolin-2-yl)acetamide]"
11,0.1 to 100 nM,"Cc1cc(N2CCC(C(F)(F)F)C2)ccc1Nc1ccc2c(c1)OCC(N)C(=O)N2 (stereo not drawn) [Compound 613, 3-amino-8-((2-methyl-4-(3-(trifluoromethyl)pyrrolidin-1-yl)phenyl)amino)-2,3-dihydrobenzo[b][1,4]oxazepin-4(5H)-one]"
12,0.1 to 100 nM,"Cc1nc(N2C[C@@H](C)O[C@@H](C)C2)ccc1Nc1ccc2c(c1)ncn2C [Compound 605, N-(6-((2S,6R)-2,6-dimethylmorpholino)-2-methylpyridin-3-yl)-1-methyl-1H-benzo[d] imidazol-5-amine]"
13,0.1 to 100 nM,"Cc1c(Nc2ccc3c(c2)OCC(=O)N3)ccc(N2CCC(C(F)(F)F)CC2)c1F [Compound 454, 7-((3-fluoro-2-methyl-4-(4-(trifluoromethyl)piperidin-1-yl)phenyl)amino)-2H-benzo[b][1,4]oxazin-3(4H)-one]"
14,0.1 to 100 nM,"Cc1cc(N2CCC(C(F)(F)F)CC2)ccc1Nc1cc(C#N)c2c(c1)OCC(=O)N2 [Compound 468, 7-((2-methyl-4-(4-(trifluoromethyl)piperidin-1-yl)phenyl)amino)-3-oxo-3,4-dihydro-2H-benzo[b][1,4]oxazine-5-carbonitrile]"
15,0.1 to 100 nM,"CC1CCN(c2ccc(Nc3cnc4c(c3)OCC(=O)N4)cc2)CC1 [Compound 596, 7-((4-(4-methylpiperidin-1-yl)phenyl)amino)-2H-pyrido[3,2-b][1,4]oxazin-3(4H)-one]"
16,0.1 to 100 nM,"Cc1cc(N2CCC(C)CC2)ccc1Nc1ccc2c(c1)OCC(=O)N2 [Compound 491, 7-((2-methyl-4-(4-methylpiperidin-1-yl)phenyl)amino)-2H-benzo[b][1,4]oxazin-3(4H)-one]"
